Measured values published in paper PMC6150024, “In Vitro Evaluation of Cytotoxicity and Permeation Study on Lysine- and Arginine-Based Lipopeptides with Proven Antimicrobial Activity” (Molecules : A Journal of Synthetic Chemistry and Natural …, 2017).
Converted amounts (≈) assume the structure as drawn. Where two headings read alike, the source gives them in different places. Residues, ends and D or L forms follow the SMILES beside them. *: point of attachment. Palmitoyl = CCCCCCCCCCCCCCCC(=O)*

Tests used:
[1] = system: Staphylococcus aureus (ATCC 25923); design: method as in 2 sources, ref 11 = [11]; PMID 28203232; doi:10.3389/fmicb.2017.00123; 11. Greber K.E. Dawgul M. Kamysz W. Sawicki W. Cationic net charge and counter ion type as antimicrobial activity determinant factors of short lipopeptides Front. Microbiol. 2017 8 1 10 10.3389/fmicb. ||| ref 12 = [12]; PMID 24748099; doi:10.1007/s00726-014-1744-9; 12. Greber K.E. Dawgul M. Kamysz W. Sawicki W. Łukasiak J. Biological and surface-active properties of double-chain cationic amino acid-based surfactants Amino Acids 2014 46 1893 1898 10.1007/s00726-0; conditions: cited from earlier work; for MIC S. aureus: ATCC 25923, serial dilution; for MBC S. aureus: ATCC 25923
[2] = system: Escherichia coli (ATCC 25922); design: method as in 2 sources, ref 11 = [11]; PMID 28203232; doi:10.3389/fmicb.2017.00123; 11. Greber K.E. Dawgul M. Kamysz W. Sawicki W. Cationic net charge and counter ion type as antimicrobial activity determinant factors of short lipopeptides Front. Microbiol. 2017 8 1 10 10.3389/fmicb. ||| ref 12 = [12]; PMID 24748099; doi:10.1007/s00726-014-1744-9; 12. Greber K.E. Dawgul M. Kamysz W. Sawicki W. Łukasiak J. Biological and surface-active properties of double-chain cationic amino acid-based surfactants Amino Acids 2014 46 1893 1898 10.1007/s00726-0; conditions: cited from earlier work; for MIC E. coli: ATCC 25922, serial dilution; for MBC E. coli: ATCC 25922
[3] = system: Candida albicans (ATCC 10231); design: method as in 2 sources, ref 11 = [11]; PMID 28203232; doi:10.3389/fmicb.2017.00123; 11. Greber K.E. Dawgul M. Kamysz W. Sawicki W. Cationic net charge and counter ion type as antimicrobial activity determinant factors of short lipopeptides Front. Microbiol. 2017 8 1 10 10.3389/fmicb. ||| ref 12 = [12]; PMID 24748099; doi:10.1007/s00726-014-1744-9; 12. Greber K.E. Dawgul M. Kamysz W. Sawicki W. Łukasiak J. Biological and surface-active properties of double-chain cationic amino acid-based surfactants Amino Acids 2014 46 1893 1898 10.1007/s00726-0; conditions: cited from earlier work; for MIC C. albicans: ATCC 10231, serial dilution; for MFC C. albicans: ATCC 10231
human keratinocytes = conditions: cited from earlier work
Excerpt: (§1) The results of the MTT assay obtained in this study indicate high toxicity of lipopeptides containing one palmitic acid chain. This contradicts the previously advanced hypotheses about the selectivity of antimicrobial peptides. According to some authors, peptides designed based on naturally occurring compounds in human organisms are expected to be safe to human cells and their selectivity results from the presence of cholesterol and arrangement of lipids in the eukaryotic cell membrane. […] In the previou ...

HaCaT keratinocytes = assay type: cell-based, human
Experimental: HaCaT cells were obtained from American Type Culture Collection (ATCC). Cells were cultivated in Dulbecco’s modified Eagle Medium (Invitrogen) with 10% fetal bovine serum in humidified incubator at […] in 5% CO2 and cultured in 96-well plates and allowed to grow to 60–70% confluence prior to the start of the experiments.
The MTT assay is a colorimetric technique for assessing cell metabolic activity based on NAD(P)H-dependent cellular oxidoreductase enzymes activity that, under defined conditions, reflects the number of viable cells present. Viable cells reduce the tetrazolium dye MTT 3-(4,5-dimethylthiazol-2-yl)-2,5-diphenyltetrazolium bromide to its insoluble formazan, which has a purple colour. The colour intensity reflects the number of live cells and can be measured spectrophotometrically. Briefly, one day after culturing 500 cells per well, different concentrations of compounds were applied. After a 24-h incubation with the specified compounds, a medium containing 1 mg/mL MTT was added to the cells (HaCaT keratinocytes) up to a final concentration of 0.5 mg/mL and incubated at 37 °C for 4 h. The medium was then aspired, and the formazan product was solubilized with DMSO. The absorbance at 630 nm (background absorbance) was subtracted and absorbance measured at 570 nm for each well. There were 6 replicates for each tested concentration. All experiments were repeated at least twice. The resulting IC50 values were calculated with a GraFit 7 software (v. 7.0, Erithacus, Berkley, CA, USA).

[4] = assay type: physicochemical
Experimental: (§2) The compounds were dissolved in a mixture of dimethyl sulphoxide (DMSO) and phosphate buffer (PBS). […] MIC was determined by the serial dilution method on polystyrene 96-well plates with Mueller–Hinton II broth (MHB II) for reference bacterial strains: Staphylococcus aureus (ATCC 25923) and Escherichia coli (ATCC 25922), while for Candida albicans (ATCC 10231), the Sabouraud dextrose broth was applied. The microorganisms were obtained from the Polish Collection of Microorganisms (Wroclaw, Poland). Bacteria were cultured at 37 °C under aerobic conditions overnight in Brain Heart Infusion broth, centrifuged at 1000 rpm for 8 min, washed thrice with PBS and resuspended in MHB II. Candida albicans was cultured in Sabouraud dextrose broth for 48 h at 27 °C under aerobic conditions, centrifuged at 1000 rpm for 8 min, washed thrice with PBS and resuspended in Sabouraud dextrose broth. Bacterial (5 × 10^5 CFU/mL) and fungal (5 × 10^4 CFU/mL) suspensions were exposed to lipopeptides applied at graded concentrations (range 1–512 mg/L) for 18 h at 37 °C under aerobic conditions (bacteria) and 48 h at 27 °C under aerobic conditions (fungi). MIC was taken as the lowest concentration at which no visible growth of bacteria/fungi was observed. MBC and MFC were determined using MH II agar and Sabouraud Dextrose agar, for bacteria and fungi respectively. The contents of wells with MICs and two subsequent higher concentrations were transferred to agar plates and cultivated for 18 h at 37 °C under aerobic conditions (bacteria) and 48 h at 27 °C under aerobic conditions (fungi). The MBC and MFC were taken as the lowest concentrations at which no colony forming units were found. All tests were performed in triplicate.

[5] = system: Escherichia coli (ATCC 25922); assay type: cell-based; conditions: for MBC E. coli / MIC E. coli: ATCC 25922, 18 h
Experimental: as §2

[6] = system: Staphylococcus aureus (ATCC 25923); assay type: cell-based; conditions: for MBC S. aureus / MIC S. aureus: ATCC 25923, 18 h
Experimental: as §2

[7] = system: Candida albicans (ATCC 10231); assay type: cell-based; conditions: ATCC 10231, 48 h
Experimental: as §2

human red blood cells = conditions: cited from earlier work
Excerpt: as §1

[8] = classification of antimicrobial peptides from patent
[9] = MTT assay, 24 h exposure, 6 replicates per concentration, experiments repeated at least twice

Molecule	IC50 ± SD on HaCaT keratinocytes (HaCaT keratinocytes; 24 h)	Concentration at which solutions were obtained [4] [µg/mL]	MBC E. coli [5] [µg/mL]	MIC E. coli [5] [µg/mL]	MBC S. aureus [6] [µg/mL]	MIC S. aureus [6] [µg/mL]	MFC C. albicans [7] [µg/mL]	MIC C. albicans [7] [µg/mL]	also measured
CCCCCCCCCCCCCCCC(=O)N[C@@H](CCCCN)C(=O)N[C@@H](CCCCN)C(N)=O [Lipopeptide C16-KK-NH2]	1.8 ± 0.2 mg/L (≈ 3.52 µM)	512							MIC S. aureus ([1]; Table 1 ref 11): 4 µg/mL (≈ 7.82 µM); MBC S. aureus ([1]; Table 1 ref 11): 4 µg/mL (≈ 7.82 µM); MIC E. coli ([2]; Table 1 ref 11): 8 µg/mL (≈ 15.6 µM); MBC E. coli ([2]; Table 1 ref 11): 8 µg/mL (≈ 15.6 µM); MIC C. albicans ([3]; Table 1 ref 11): 128 µg/mL (≈ 250 µM); MFC C. albicans ([3]; Table 1 ref 11): 128 µg/mL (≈ 250 µM); Concentration with negative influence on proliferation and viability of human keratinocytes (human keratinocytes): ≥ 1 µg/mL
CCCCCCCCCCCCCCCC(=O)N[C@@H](CCCCN)C(=O)N[C@@H](CCCCN)C(=O)N[C@@H](CCCCN)C(N)=O [Lipopeptide C16-KKK-NH2]	3.2 ± 0.1 mg/L (≈ 5 µM)	512							MIC S. aureus ([1]; Table 1 ref 11): 4 µg/mL (≈ 6.25 µM); MBC S. aureus ([1]; Table 1 ref 11): 8 µg/mL (≈ 12.5 µM); MIC E. coli ([2]; Table 1 ref 11): 8 µg/mL (≈ 12.5 µM); MBC E. coli ([2]; Table 1 ref 11): 16 µg/mL (≈ 25 µM); MIC C. albicans ([3]; Table 1 ref 11): 128 µg/mL (≈ 200 µM); MFC C. albicans ([3]; Table 1 ref 11): 128 µg/mL (≈ 200 µM)
CCCCCCCCCCCCCCCC(=O)N[C@@H](CCCCN)C(=O)N[C@@H](CCCNC(=N)N)C(=O)N[C@@H](CCCCN)C(N)=O [Lipopeptide C16-KRK-NH2] (Palmitoyl-Lys-Arg-Lys-NH2)	2.3 ± 0.4 mg/L (≈ 3.44 µM)	512	16 (≈ 24 µM)	8 (≈ 12 µM)	16 (≈ 24 µM)	4 (≈ 5.99 µM)	256 (≈ 383 µM)	128 (≈ 192 µM)	
CCCCCCCCCCCCCCCC(=O)N[C@@H](CCCCN)C(=O)NCCCC[C@H](N)C(N)=O [Lipopeptide C16-KεK-NH2]	7.4 ± 0.9 mg/L (≈ 14.5 µM)		32 (≈ 62.5 µM)	16 (≈ 31.3 µM)	8 (≈ 15.6 µM)	8 (≈ 15.6 µM)	256 (≈ 500 µM)	128 (≈ 250 µM)	
CCCCCCCCCCCCCCCC(=O)N[C@@H](CCCNC(=N)N)C(=O)N[C@@H](CCCNC(=N)N)C(N)=O [Lipopeptide C16-RR-NH2] (Palmitoyl-Arg-Arg-NH2)	1.9 ± 0,3 mg/L		16 (≈ 28.2 µM)	16 (≈ 28.2 µM)	8 (≈ 14.1 µM)	8 (≈ 14.1 µM)	256 (≈ 451 µM)	128 (≈ 225 µM)	
CCCCCCCCCCCCCCCC(=O)N[C@@H](CCCNC(=N)N)C(=O)N[C@@H](CCCNC(=N)N)C(=O)N[C@@H](CCCNC(=N)N)C(N)=O [Lipopeptide C16-RRR-NH2] (Palmitoyl-Arg-Arg-Arg-NH2)	3.2 ± 1.4 mg/L (≈ 4.42 µM)		16 (≈ 22.1 µM)	16 (≈ 22.1 µM)	4 (≈ 5.52 µM)	2 (≈ 2.76 µM)	256 (≈ 354 µM)	128 (≈ 177 µM)	
(C10)2-KKKK-NH2									MIC S. aureus ([1]; Table 1 ref 12): 8 µg/mL; MBC S. aureus ([1]; Table 1 ref 12): 16 µg/mL; MIC E. coli ([2]; Table 1 ref 12): 16 µg/mL; MBC E. coli ([2]; Table 1 ref 12): 16 µg/mL; Activity class against E. coli by classification of Shai and Abrahami [5, 8]: active; Activity class against S. aureus by classification of Shai and Abrahami [6, 8]: highly active; MIC C. albicans ([3]; Table 1 ref 12): 128 µg/mL; MFC C. albicans ([3]; Table 1 ref 12): 256 µg/mL; Toxicity towards human red blood cells at microbiologically active concentrations (human red blood cells): non-toxic; IC50 ± SD on HaCaT keratinocytes (HaCaT keratinocytes; [9]): 49.4 ± 9.1 mg/L
(C12)2-KKKK-NH2									MIC S. aureus ([1]; Table 1 ref 12): 16 µg/mL; MBC S. aureus ([1]; Table 1 ref 12): 32 µg/mL; MIC E. coli ([2]; Table 1 ref 12): 64 µg/mL; MBC E. coli ([2]; Table 1 ref 12): 64 µg/mL; MIC C. albicans ([3]; Table 1 ref 12): 256 µg/mL; MFC C. albicans ([3]; Table 1 ref 12): 512 µg/mL; IC50 ± SD on HaCaT keratinocytes (HaCaT keratinocytes; [9]): 42.1 ± 9.1 mg/L
